{
  "source": "patent US20240245802A1",
  "about": "“PHARMACEUTICAL COMPOSITION FOR PREVENTING OR TREATING BRAIN TUMORS COMPRISING EXTRACELLULAR VESICLES LOADED WITH MITOCHONDRIA-TARGETING PHOTOSENSITIZER AS AN ACTIVE INGREDIENT” (ExoTheranostics, Inc., priority 2023, published 2024)",
  "key": {"[1]": {"test_system": "luciferase-expressing U87MG brain tumors", "experiment": "In vivo anti-brain tumor efficacy with laser irradiation", "parameters": "species or system mice", "experimental": "(§1) All animal experiments were approved by the Institutional Animal Care and Use Committee at Gachon University (Approval number: LCDI-2017-0131). Orthotopic GBM-xenografted mice were prepared using U87MG cells stably expressing luciferase. Briefly, male athymic mice of 5 weeks of age (20-30 g) were placed on a stereotactic device (Harvard Apparatus, USA) under inhalation anesthesia using 1-1.5% isoflurane. U87MG-luc cells (1×10^5 cells) suspended in 2 μL of PBS were injected into the right striatum at a flow rate of 0.5 μL/min through a small hole in the skull at a position 2.0 mm lateral, 0.2 mm anterior, and 3.2 mm ventral to the bregma. The formation of brain tumors in the mice was identified by bioluminescence intensity (BLI).\nThe orthotopic GBM-bearing mice were randomly divided into five groups (n=4) and injected with one of the following regimens by i.v. injection dose of 0.8 μmol/kg Ce6 (or TPP-Ce6) via the tail vein: • (i) PBS, • (ii) PBS+L (L indicates light irradiation), • (iii) Ce6 (0.8 μmol/kg)+L, • (iv) TPP-Ce6 (0.8 μmol/kg)+L, and • (v) bEV(TPP-Ce6) (0.8 μmol/kg)+L.\nAt 4 h post-injection, the tumor sites of the mice were irradiated with a 660-nm laser (150 mW, 5 min) on the skull. […] Regions of bioluminescence signal were determined using Aura imaging software (Spectral Instruments Imaging). […]"}, "U87MG cells [2]": {"test_system": "U87MG cells", "experiment": "Intracellular localization by CLSM, MitoTracker Green", "format": "cell-based, human", "details": "free Ce6 or TPP-Ce6, 2 h", "experimental": "U87MG and bEnd.3 cells (2×10^3 cells/well) were prepared in glass-bottom dishes (35×10 mm^2) and incubated for 24 h. Free Ce6, free TPP-Ce6, and bEV(TPP-Ce6) in serum-free medium were added to the cells at a final TPP-Ce6 (or Ce6) concentration of 0.15 μM. After 2 h of incubation at 37° C., the cells were washed three times with PBS and stained with 1 μg/mL DAPI (Thermo Fisher Scientific) for 10 min. Then, the cells were stained with 1 μM of LysoTracker Green DND-26 (Thermo Fisher Scientific) and 500 nM of MitoTracker Green FM (Thermo Fisher Scientific) for endo/lysosome and mitochondria staining, respectively. The glass-bottom dish was placed in live-cell chamber systems (5% CO2 at 37° C.) connected to a CLSM (Al Plus, Nikon, Japan). The obtained fluorescent images were analyzed for the quantification of colocalization ratios."}, "U87MG cells [3]": {"test_system": "U87MG cells", "experiment": "In vitro phototoxicity, MTT assay", "format": "cell-based, human", "details": "10 μM", "experimental": "To investigate the photodynamic effects of TPP-Ce6-loaded EVs, the viability of U87MG cells after various treatments in the presence or absence of laser irradiation was measured using a standard MTT assay. U87MG cells were treated with Ce6, TPP-Ce6, and bEV(TPP-Ce6) at an equivalent Ce6 (or TPP-Ce6) concentration (10 μM, 5.38×10^10 bEVs/mL). Cytotoxicity of blank bEVs against U87 cells was also assessed at various concentrations of bEVs. After 4 h of treatments, the cells were illuminated with a 660 nm laser for 1 min. The cells not subjected to light irradiation were adopted as a negative control. The cells were further incubated for 24 h, and their viabilities were measured."}, "U87MG cells [4]": {"test_system": "U87MG cells", "experiment": "JC-1 staining assay (mitochondrial membrane potential)", "format": "cell-based, human", "details": "10 μM, 4 h, 660-nm laser 1 min", "experimental": "Changes in the mitochondria membrane potentials of U87MG cells after various treatments were evaluated using a conventional JC-1 staining assay. U87MG cells were cultured in 12-well plates (3×10^5 cells/well) 24 h before treatment with Ce6, TPP-Ce6, and bEV(TPP-Ce6) (10 µM of Ce6 or TPP-Ce6). After 4 h of incubation, the cells were exposed to a 660-nm laser for 1 min. The untreated cells were adopted as a control. Then, the irradiated cells were treated with JC-1 solution in PBS (2.5 μg/mL) for 20 min in the dark, then rinsed twice with PBS. Fluorescent images of the cells were obtained by fluorescence microscopy (Nikon Eclipse Ti—S). Red fluorescence signals indicate the JC-1 aggregates in polarized mitochondria of healthy cells whereas green fluorescence signals reflect the JC-1 monomers in depolarized mitochondria, which indicates the loss in mitochondrial membrane potential, an indicator of mitochondrial damage."}, "[5]": {"test_system": "orthotopic GBM-xenografted mice", "experiment": "In vivo biodistribution and brain-tumor accumulation by IVIS", "details": "i.v. 0.8 μmol/kg", "experimental": "as §1\nTo evaluate in vivo real-time biodistribution of Ce6, TPP-Ce6, and bEV(TPP-Ce6), orthotopic GBM-xenografted mice (n=4) were intravenously administered with 100 μL of each sample (0.8 μmol/kg for Ce6 or TPP-Ce6). Whole-body fluorescence images were acquired at the predetermined time points within 24 h after i.v. injection using an IVIS optical imaging system with a long wavelength emission filter (640-720 nm) (Ami HT imaging system, Spectral Instruments Imaging, Tucson, AZ, USA). Quantitative analysis of fluorescence intensity in the images was carried out using the region of interest (ROI) function of Aura Imaging 2.20 software (Spectral Instruments Imaging). […]"}, "[6]": {"experiment": "ROS generation in cell-free system (DCF)", "details": "before and after 660-nm laser treatment", "experimental": "(§2) The generation of ROS by Ce6 and TPP-Ce6 before and after 660 nm laser treatment was quantified using 2′,7′-dichlorofluorescein (DCF) in a cell-free system. After the sample solutions were treated with DCF for 1 h in the dark, ROS generation was determined by measuring the fluorescence signal from the samples. The intracellular ROS production in U87MG cells after various treatments was measured using DCF-DA. U87MG cells were inoculated into 12 well-plates at a density of 3×10^5 cells/well and cultured overnight. After the cells were incubated with 10 μM DCF-DA for 15 min, they were treated with Ce6, TPP-Ce6, and bEV(TPP-Ce6) at a TPP-Ce6 (or Ce6) concentration of 10 μM. After 4 h of incubation, the cells were trypsinized and divided into two groups. One of the groups was treated with a 660 nm laser for 1 min. The cells not subjected to laser treatment were kept as a control. After 30 min of incubation in the dark, relative ROS generation levels of each sample were quantified by flow cytometry (CytoFLEX)."}, "U87MG cells [7]": {"test_system": "U87MG cells", "experiment": "Intracellular ROS generation (DCF-DA)", "format": "cell-based, human", "experimental": "as §2\nTo visualize ROS generation by TPP-Ce6 and bEV(TPP-Ce6) in U87MG cells under light irradiation, the cells were inoculated into 12-well plates (3×10^5 cells/well) and stained with 10 μM of DCF-DA. […] The green fluorescence signals indicating intracellular ROS were observed using a fluorescence microscope (Nikon Eclipse Ti-S, Nikon, Tokyo, Japan)."}},
  "data": [
    {"substance": "chlorin e6 [Ce6]", "values": [
      {"measurement": "H&E staining of brain tumor tissue", "setting": "[1]; day 9, upon light irradiation", "result": "low cell density and nuclear shrinkage"},
      {"measurement": "Tumor growth (bioluminescence intensity)", "setting": "[1]; i.v. 0.8 μmol/kg, 660 nm laser 5 min at 4 h, 9 days", "result": "limited suppression of tumor growth"},
      {"measurement": "Mander's overlap coefficient with MitoTracker Green", "setting": "U87MG cells [2]", "result": "0.31±0.03"},
      {"measurement": "Cell viability under light irradiation", "setting": "U87MG cells [3]; 660 nm laser 1 min, 24 h", "result": 72.5, "unit": "%"},
      {"measurement": "Viability / cytotoxicity without light", "setting": "U87MG cells [3]; no light irradiation", "result": "slightly decreased"},
      {"measurement": "JC-1 red fluorescence / red to green fluorescence ratio", "setting": "U87MG cells [4]", "result": "drastically decreased"},
      {"measurement": "Fluorescence in the brain", "setting": "[5]; 24 h post-injection", "result": "weak fluorescence signals"},
      {"measurement": "Whole brain-to-whole body fluorescence intensity ratio, time course", "setting": "[5]; whole body at 1 min", "result": "similar"},
      {"measurement": "Relative ROS level in cell-free system", "setting": "[6]", "result": "significantly increased the ROS generation"},
      {"measurement": "Relative intracellular ROS level, effect of light", "setting": "U87MG cells [7]; after light irradiation (660 nm, 1 min) vs before", "result": "significantly increased after 1 min of light exposure"},
      {"measurement": "DCF-DA fluorescence signals (images)", "setting": "U87MG cells [7]; without light", "result": "weak fluorescence signals"}
    ]}
  ]
}
